The values that follow come from patent US8173771B2, “Humanin receptor or humanin-like polypeptide receptor” (Keio Univeristy, priority 2005, dated 2012).

For assay [1], the system named is neuronal cell death by AD-related insults. The note with it: cited from earlier work.
Assay [2] concerns the target T1, human WSX-1, human CNTF receptor and human gp130 overexpressed in F11 cells (Homo sapiens, UniProt Q6UWB1).
T1 construct: His; V5 (C); expressed in transfected cells; host or cells: F11 cells
T1 sequence (Q6UWB1 33-636): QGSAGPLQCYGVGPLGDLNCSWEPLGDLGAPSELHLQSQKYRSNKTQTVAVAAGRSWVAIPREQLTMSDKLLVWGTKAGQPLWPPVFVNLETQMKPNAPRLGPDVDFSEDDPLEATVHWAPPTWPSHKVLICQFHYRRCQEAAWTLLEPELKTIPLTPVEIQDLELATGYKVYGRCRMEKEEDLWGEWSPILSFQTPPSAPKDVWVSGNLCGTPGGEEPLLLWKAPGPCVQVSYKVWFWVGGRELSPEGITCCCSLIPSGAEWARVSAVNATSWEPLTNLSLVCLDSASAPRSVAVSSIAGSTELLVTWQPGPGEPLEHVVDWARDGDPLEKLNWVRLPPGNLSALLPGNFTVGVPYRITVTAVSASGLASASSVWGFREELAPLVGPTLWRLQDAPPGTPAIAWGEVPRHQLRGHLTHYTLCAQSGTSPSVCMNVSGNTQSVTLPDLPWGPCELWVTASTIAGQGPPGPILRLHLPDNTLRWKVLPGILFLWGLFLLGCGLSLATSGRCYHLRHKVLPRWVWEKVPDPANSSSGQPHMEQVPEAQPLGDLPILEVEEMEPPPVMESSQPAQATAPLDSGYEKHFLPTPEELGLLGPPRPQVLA
T1 sequence (P40189 23-918 partner): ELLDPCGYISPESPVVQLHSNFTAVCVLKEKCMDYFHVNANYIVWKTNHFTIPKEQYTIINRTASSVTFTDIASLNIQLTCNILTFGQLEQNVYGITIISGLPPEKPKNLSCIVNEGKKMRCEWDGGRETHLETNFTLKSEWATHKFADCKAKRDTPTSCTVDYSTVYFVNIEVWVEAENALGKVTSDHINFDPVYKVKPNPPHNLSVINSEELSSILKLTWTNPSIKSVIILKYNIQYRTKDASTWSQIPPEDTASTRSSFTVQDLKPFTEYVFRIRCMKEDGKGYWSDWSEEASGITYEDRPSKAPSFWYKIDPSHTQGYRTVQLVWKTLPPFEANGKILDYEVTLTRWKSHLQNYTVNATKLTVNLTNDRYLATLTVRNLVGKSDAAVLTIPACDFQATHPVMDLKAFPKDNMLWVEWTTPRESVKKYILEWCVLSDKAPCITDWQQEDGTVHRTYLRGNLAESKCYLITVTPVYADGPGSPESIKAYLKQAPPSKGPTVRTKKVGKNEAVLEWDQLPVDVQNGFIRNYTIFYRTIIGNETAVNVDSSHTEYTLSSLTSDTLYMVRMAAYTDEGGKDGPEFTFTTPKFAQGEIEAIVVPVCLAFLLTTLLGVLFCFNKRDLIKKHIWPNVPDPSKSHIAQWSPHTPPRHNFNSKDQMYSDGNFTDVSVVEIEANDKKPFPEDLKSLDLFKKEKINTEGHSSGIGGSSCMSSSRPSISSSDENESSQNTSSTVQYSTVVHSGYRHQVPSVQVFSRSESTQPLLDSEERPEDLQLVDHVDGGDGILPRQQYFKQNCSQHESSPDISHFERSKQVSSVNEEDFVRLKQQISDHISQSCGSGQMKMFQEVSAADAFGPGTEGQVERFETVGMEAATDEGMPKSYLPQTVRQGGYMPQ
Description: Immunofluorescence-based HN binding assay (1) after ectopic overexpression of receptor genes in F11 cells. The following applies: large amount (10 μM) of non-labeled peptide. The protocol:
A) F11 cells were transfected with 0.5 μg of the pEF/BOS vector, pEF-mycHis CREME9, pEF-mycHishuman WSX-1, or pEF-V5-human CNTF-R in association with 0.5 μg of pCAG-human gp130, or transfected with 0.5 μg of pEF-mycHis human WSX-1 and pEF-V5-human CNTF-R and pCAG-human gp130. To keep the total amounts of transfected vectors to be 1.5 μg, an appropriate amount of the pEFBOS vector was added. The graphs show the results of a binding amount of the biotin-labeled HN to each transfected cell by the detection of immunofluorescence reaction. The protein expression by immunoblot analysis is shown below in photos.
B) F11 cells were transfected with 0.5 μg of pEF-myc His human CREME9 or pEF-mycHis human WSX-1 in association with 0.5 μg of pCAG-human gp130. For competition, 10 μM of non-labeled (cold) HNG or HNA was added for some experiments. Fluorescence signals were detected with a laser-scanning, confocal microscope LSM (Carl Zeiss, Germany) (right panels).
F11 cells (7×10^4/well in 6-well plates) were replated into 96-well plates (7×10^3 cells/well) at 24 hrs after transfection with indicated amounts of the plasmids encoding mycHis-WSX or V5-CNTF-R, and with PCAG-human gp130 if required. […] Immunofluorescence intensity was measured (excitation=485 nm, emission=535 nm) with a spectrofluorometer (Wallac1420 ARVOsx Multi Label Counter). […]

Peptide text beside a SMILES is read from it.

`CC[C@H](C)[C@H](NC(=O)[C@H](CCC(=O)O)NC(=O)CNC(=O)[C@@H](NC(=O)[C@H](CC(C)C)NC(=O)[C@H](CC(C)C)NC(=O)[C@H](CC(C)C)NC(=O)[C@H](CC(C)C)NC(=O)[C@H](CS)NC(=O)[C@H](CO)NC(=O)[C@H](Cc1ccccc1)NC(=O)CNC(=O)[C@H](CCCNC(=N)N)NC(=O)[C@@H]1CCCN1C(=O)[C@H](C)NC(=O)[C@@H](N)CCSC)[C@@H](C)O)C(=O)N[C@@H](CC(=O)O)C(=O)N[C@@H](CC(C)C)C(=O)N1CCC[C@H]1C(=O)N[C@H](C(=O)N[C@@H](CCCCN)C(=O)N[C@@H](CCCNC(=N)N)C(=O)N[C@@H](CCCNC(=N)N)C(=O)N[C@@H](C)C(=O)O)C(C)C` [HNG, S14 G-Humanin] (H-MAPRGFSCLLLLTGEIDLPVKRRA-OH; N-terminus and C-terminus assumed): the “potency relative to HN” value in assay [1] is 1000 fold. Further, the “effect of unlabeled peptide on binding of HN to cells expressing WSX-1 and gp130” value in assay [2] is “nullified”.

Regarding “C8A-Humanin (MAPRGFSALLLLTSEIDLPVKRRA) [HNA]”, the “HN activity of the mutant” value in assay [1] (negative control) is “null activity”. The “effect of unlabeled peptide on binding of HN to cells expressing WSX-1 and gp130” value in assay [2] is reported as “not”.
